{"source": "paper PMC6613030", "about": "“LC-ESI-MS/MS Phenolic Profile of Volutaria lippii (L.) Cass. Extracts and Evaluation of Their In Vitro Antioxidant, Antiacetylcholinesterase, Antidiabetic, and Antibacterial Activities” (Evidence-based Complementary and Alternative Medicine : eCAM, 2019)", "key": {"[1]": {"target": "T1, pancreatic α-amylase (Sus scrofa, UniProt P00690)", "T1 construct": "purchased Merck (Sigma-Aldrich, Steinheim, Germany)", "T1 sequence (P00690 16-511)": "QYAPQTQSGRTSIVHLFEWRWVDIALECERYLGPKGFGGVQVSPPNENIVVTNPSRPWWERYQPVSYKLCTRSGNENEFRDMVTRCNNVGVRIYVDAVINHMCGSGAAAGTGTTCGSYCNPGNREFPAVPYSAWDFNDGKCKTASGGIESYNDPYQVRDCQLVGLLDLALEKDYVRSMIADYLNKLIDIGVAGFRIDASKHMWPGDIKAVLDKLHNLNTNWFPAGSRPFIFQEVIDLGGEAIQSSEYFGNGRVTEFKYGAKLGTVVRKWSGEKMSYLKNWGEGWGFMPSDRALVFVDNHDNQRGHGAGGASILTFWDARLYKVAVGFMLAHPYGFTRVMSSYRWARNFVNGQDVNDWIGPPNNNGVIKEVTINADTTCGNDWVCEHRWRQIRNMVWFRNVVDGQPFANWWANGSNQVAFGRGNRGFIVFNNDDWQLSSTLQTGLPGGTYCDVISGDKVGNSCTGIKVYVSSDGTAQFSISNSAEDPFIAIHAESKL", "assay": "biochemical", "method": "The in vitroα-amylase inhibitory assay of all fractions was performed by the previous method described by Gella et al.. […] Percentage inhibition (PI) was calculated by the following expression:(3) PI%=Acontrol – Asample/Acontrol×100 where Acontrol is the absorbance of the control and Asample is the absorbance of the test sample."}, "[2]": {"assay": "DPPH radical scavenging assay", "conditions": "30 min in the dark, absorbance at 517 nm", "procedure": "The DPPH radical scavenging activity of different fractions of V. lippii was evaluated following the procedure described by Les et al. [14]. […] The final concentrations in the reaction's mixture were 0.005-0.5 mg/mL. Each mixture was shaken and allowed in the dark for 30 min at room temperature. The blank was prepared as above without any extract and the BHT was used as positive control. […] The PI was calculated using the following equation:(1) PI%=Ablank – Asample/Ablank×100 where Ablank is the absorbance of the blank and Asample is the absorbance of the test sample.\nThe calibration curve for scavenging percentage against extract concentration was plotted and the IC50 (half maximal inhibitory concentration) value of each sample was established."}, "[3]": {"assay": "Reducing power assay (FRAP)", "conditions": "effective concentration at which the absorbance is 0.5 (700 nm)", "method": "The reducing power of all fractions was evaluated using the procedure of Yildirim et al., and BHT was used as positive control. A 1 mL of different concentrations of each V. lippii sample (5, 10, 25, 50,100 μg/mL) was mixed with 2.5 mL of 1% potassium ferricyanide and 2.5 mL of sodium phosphate buffer (0.2 M, pH= 6.6). The mixture was incubated for 20 min at 50°C and then 2.5 mL of 10% trichloroacetic acid were added and centrifuged for 10 minutes. 2.5 mL of the supernatant were mixed with 0.5 mL of ferric chloride solution (0.1%) and 2.5 mL of distilled water. The absorbance of the mixture was measured at 700 nm."}, "[4]": {"test_system": "Escherichia coli (ATCC 8739)", "assay": "Antibacterial activity, agar disc diffusion", "type": "cell-based", "conditions": "10 μg / disc, positive control", "method": "(§1) The V. lippii fractions were assessed against a five bacterial strains: Gram-negative: Salmonella enterica (CIP 8039) and Escherichia coli (ATCC 8739), Gram-positive: Staphylococcus aureus (ATCC 6538), Bacillus thuringiensis, and Enterococcus faecalis (ATCC 29212). Bacteria not obtained from an ATCC collection were acquired from the Microbiology Department, Faculty of Science, University of Sfax (Tunisia). Bacterial strains were cultured in Mueller-Hinton agar (MHA) for 24 h at 37°C.\n(§2) The disc diffusion method was employed for the determination of antibacterial activities of V. lippii fractions according to the method described by Berghe and Vlietinck. Antibacterial activities were evaluated by measuring the diameters of the inhibition zones against the test organisms and compared to penicillin (10 μg per disk) as the positive control. Tests were carried out in triplicate."}, "[5]": {"test_system": "Staphylococcus aureus (ATCC 6538)", "assay": "Antibacterial activity, agar disc diffusion", "type": "cell-based", "conditions": "10 μg / disc, positive control", "method": "as §1, §2"}, "[6]": {"test_system": "Enterococcus faecalis (ATCC 29212)", "assay": "Antibacterial activity, agar disc diffusion", "type": "cell-based", "conditions": "10 μg / disc, positive control", "method": "as §1, §2"}, "[7]": {"test_system": "Bacillus thuringiensis", "assay": "Antibacterial activity, agar disc diffusion", "type": "cell-based", "conditions": "10 μg / disc, positive control", "method": "as §1, §2"}}, "note": "Marks after values point to notes of the source that are not given here."}
{"molecule": "C[C@H]1O[C@H](O[C@H]2[C@H](O)[C@@H](O)[C@@H](O[C@H]3[C@H](O)[C@@H](O)C(O)O[C@@H]3CO)O[C@@H]2CO)[C@H](O)[C@@H](O)[C@@H]1N[C@H]1C=C(CO)[C@@H](O)[C@H](O)[C@H]1O", "note": "(stereo partly drawn) [Acarbose, acarbose]", "values": [{"measurement": "inhibition at 2.85 µg/mL", "setting": "[1]; concentration 2.85 μg/mL", "result": "29.8 ± 0.07", "unit": "%"}, {"measurement": "inhibition at 5.71 µg/mL", "setting": "[1]; concentration 5.71 μg/mL", "result": "51.52 ± 0.02", "unit": "%"}, {"measurement": "inhibition at 11.42 µg/mL", "setting": "[1]; concentration 11.42 μg/mL", "result": "86.62 ± 0.04", "unit": "%"}]}
{"molecule": "Cc1cc(C(C)(C)C)c(O)c(C(C)(C)C)c1", "note": "[BHT, butylated hydroxytoluene]", "values": [{"measurement": "DPPH IC50", "setting": "[2]", "result": "13.00±0.57^a μg/mL"}, {"measurement": "Reducing power EC50", "setting": "[3]", "result": "43.35±0.95^a μg/mL"}]}
{"molecule": "penicillin", "values": [{"measurement": "Inhibition zone in diameter", "setting": "[4]", "result": "16.3±0.1^d mm"}, {"measurement": "Inhibition zone in diameter", "setting": "[5]", "result": "14.1±0.5^c mm"}, {"measurement": "Inhibition zone in diameter", "setting": "[6]", "result": "16.0±0.2^c mm"}, {"measurement": "Inhibition zone in diameter", "setting": "[7]", "result": "18.0±0.4^d mm"}]}
